Test results taken from patent US9809602B2, “Compounds for treating viral infections” (INSTITUT PASTEUR KOREA, priority 2014, dated 2017).

Tested on: genotype 1/2 chimeric cell culture derived HCV (HCVcc)
Experiment: Genotype 1/2 chimeric HCVcc assay (nano-luciferase, HCV replication)
Format: cell-based
Conditions: Hepatitis C virus
Outline: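 EC50 (replication, nano-luciferase) and CC50 (viability, cellular ATP) were determined by non-linear regression 72 h after infection with a reporter HCVcc chimera carrying genotype 1a structural and 2a JFH-1 non-structural proteins. Compound was applied to Huh-7.5 cells 2 h before inoculation.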

Structure (SMILES) | EC50
O=C(NCCCN1CCC(N2CCCCC2)CC1)c1ccc(-c2cccc(C(F)(F)F)c2)cc1 [Compound 1027] | 0.1 to 1 µM
O=C(NCCCN1CCC(N2CCCCC2)CC1)c1ccc(-c2ccc([N+](=O)[O-])cc2)cc1 [Compound 1122] | 0.1 to 1 µM
N#Cc1cccc(-c2ccc(C(=O)NCCCN3CCC(N4CCCCC4)CC3)cc2)c1 [Compound 1150] | 0.1 to 1 µM
O=C(NCCCN1CCC(N2CCCCC2)CC1)c1cc(-c2ccc(C(F)(F)F)cc2)cs1 [Compound 1082] | 0.1 to 1 µM
O=C(NCCCN1CCC(N2CCCCC2)CC1)c1ccc(-c2cccc(N3CCOCC3)c2)cc1 [Compound 1142] | 1 to 10 µM
O=C(CCCN1CCC(N2CCCCC2)CC1)Nc1ccc(-c2ccc(C(F)(F)F)cc2)c(C(F)(F)F)c1 [Compound 1158] | 0.1 to 1 µM
COc1cccc(Oc2ccc(C(=O)NCCCN3CCC(N4CCCCC4)CC3)cc2)c1 [Compound 1064] | > 10 µM
Cc1cccc(-c2ccc(C(=O)NCCCN3CCC(N4CCCCC4)CC3)cc2)c1 [Compound 1014] | 1 to 10 µM
COc1ccc(-c2ccc(S(=O)(=O)NCCCN3CCC(N4CCCCC4)CC3)cc2)cc1 [Compound 1097] | 0.1 to 1 µM
COc1cc(NC(=O)CCCN2CCC(N3CCCCC3)CC2)ccc1-c1ccc(C(F)(F)F)cc1 [Compound 1157] | 0.1 to 1 µM
O=C(c1ccc(C2CCCCC2)cc1)N1CCC(N2CCCCC2)CC1 [Compound 1007] | 1 to 10 µM
CC(C)C1CCN(C2CCN(CCCNC(=O)c3ccc(Oc4ccccc4)cc3)CC2)CC1 [Compound 1069] | 0.1 to 1 µM
COc1ccc(-c2ccc(C(=O)NCCCN3CCC(N4CCCCC4)CC3)cc2)cc1 [Compound 1022] | < 0.1 µM
O=C(NCCCN1CCN(c2ccccc2)CC1)c1ccc(Oc2ccccc2)cc1 [Compound 1040] | 1 to 10 µM
O=C(NCCCN1CCC(Oc2ccccc2)CC1)c1ccc(Oc2ccccc2)cc1 [Compound 1056] | 1 to 10 µM
O=C(NCCCN1CCC(N2CCCCC2)CC1)c1ccc(-c2ccc(F)cc2F)cc1 [Compound 1134] | 0.1 to 1 µM
O=S(=O)(NCCCCN1CCC(N2CCCCC2)CC1)c1ccc(-c2ccc(C(F)(F)F)cc2)cc1 [Compound 1095] | 0.1 to 1 µM
O=C(NCCCN1CCCC1)c1cc2c(s1)CCCC2 [Compound 1004] | > 10 µM
O=C(NCCCN1CCC(N2CCCCC2)CC1)C1=Cc2sc3c(c2CS1)CCCC3 [Compound 1001] | 0.1 to 1 µM
O=C(NCCCN1CCN(Cc2ccccc2)CC1)c1ccc(Oc2ccccc2)cc1 [Compound 1036] | 1 to 10 µM
O=C(NCCCN1CCC(N2CCCCC2)CC1)c1ccc(-c2ccc(N3CCOCC3)cc2)cc1 [Compound 1123] | 0.1 to 1 µM

Same assay, conditions: Hepatitis C virus, Huh7.5, 72 h

Structure (SMILES) | EC50
Cc1sc(NC(=O)C(=O)NCc2c(-n3cccc3)sc3c2CCNC3)c(C(=O)OC(C)(C)C)c1C [Compound 361] | 0.1 to 1 µM
CCOC(=O)c1c(NC(=O)NCc2ccc(N(C)C)cc2)sc2c1CCCC2 [Compound 103] | < 0.1 µM
CC(C)(C)OC(=O)c1c(NC(=O)NCc2c(-c3ccc(C(=O)O)cc3)sc3c2CCNC3)sc2c1CCCC2 [Compound 257] | 1 to 10 µM
CC(C)(C)OC(=O)c1c(NC(=O)NCc2c(-n3cccc3)sc3c2CCN(CCO)C3)sc2c1CCCC2 [Compound 258] | < 0.1 µM
Cc1sc(NC(=O)NCc2c(-c3ccoc3)sc3c2CCNC3)c(C(=O)OC(C)(C)C)c1C [Compound 332] | < 0.1 µM
O=C(NCc1c(Br)sc2c1CCNC2)Nc1sc2c(c1C(=O)OC1CCCCC1)CCCC2 [Compound 271] | < 0.1 µM
CN1CCc2c(sc(Br)c2CNC(=O)Nc2sc3c(c2C(=O)OC(C)(C)C)CCCCC3)C1 [Compound 279] | < 0.1 µM
CCOC(=O)c1c(NC(=O)NC(=O)c2c(-n3c(C)ccc3C)sc3c2CCN(CC)C3)sc2c1CCCC2 [Compound 49] | 1 to 10 µM
CCN1CCc2c(sc(Br)c2CNC(=O)Nc2sc3c(c2C(=O)OC(C)(C)C)CCC3)C1 [Compound 300] | < 0.1 µM
CCOC(=O)c1c(NC(=O)NCc2c(C(F)(F)F)sc3c2CCNC3)sc2c1C(C)CCC2 (stereo not drawn) [Compound 190] | < 0.1 µM
Cc1c(CN(C)C)sc(C(F)(F)F)c1CNC(=O)Nc1sc2c(c1C(=O)OC(C)(C)C)CCCC2 [Compound 134] | < 0.1 µM
CC1CCc2sc(NC(=O)NCc3c(Br)sc4c3CCNC4)c(C(=O)OC(C)(C)C)c2C1 (stereo not drawn) [Compound 234] | < 0.1 µM
Cc1sc(NC(=O)NCc2c(-n3cccc3)sc3c2CCNC3)c(C(=O)OC(C)C)c1C [Compound 215] | < 0.1 µM
O=C(NCc1c(C(F)(F)F)sc2c1CCNC2)Nc1sc2c(c1C(=O)OC1CCCCC1)CCCC2 [Compound 272] | < 0.1 µM
CCN1CCc2c(sc(-n3cccc3)c2CNC(=O)Nc2sc3c(c2C(=O)N(C)C)CCCC3)C1 [Compound 122] | 0.1 to 1 µM
CCc1sc2c(c1CNC(=O)Nc1sc3c(c1C(=O)OC(C)(C)C)CCCC3)CCNC2 [Compound 181] | < 0.1 µM
CCOC(=O)c1c(NC(=O)c2c(-n3cccc3)sc3c2CCN(CC)C3)sc2c1CCCC2 [Compound 23] | 1 to 10 µM
CC(C)(C)OC(=O)c1c(NC(=O)NCc2c(C3CC3)sc3c2CCNC3)sc2c1CCCC2 [Compound 285] | < 0.1 µM
CCOC(=O)c1c(NC(=O)NCc2c(Cl)sc3c2CCNC3)sc2c1CCCC2 [Compound 97] | 0.1 to 1 µM
CCc1c(C)sc(NC(=O)NCc2c(C(F)(F)F)sc3c2CCNC3)c1C(=O)OC(C)(C)C [Compound 268] | < 0.1 µM
CC1CCc2sc(NC(=O)NCc3c(C(F)(F)F)sc4c3CCNC4)c(C(=O)OC(C)(C)C)c2C1 (stereo not drawn) [Compound 233] | < 0.1 µM
CCc1sc(NC(=O)NCc2c(C(F)(F)F)sc3c2CCNC3)c(C(=O)OC(C)(C)C)c1C [Compound 270] | < 0.1 µM
CCOC(=O)c1c(NC(=O)NCc2c(-n3cccc3)sc(C(=O)OC(C)(C)C)c2C)sc2c1CCCC2 [Compound 50] | 1 to 10 µM
Cc1sc(NC(=O)NCc2c(-n3cccc3)sc3c2CCN(C)C3)c(C(=O)OC(C)(C)C)c1C [Compound 69] | < 0.1 µM
O=C(NCc1c(-c2ccco2)sc2c1CCNC2)Nc1sc2c(c1C(=O)OC1CCOC1)CCCC2 (stereo not drawn) [Compound 342] | < 0.1 µM
CCOC(=O)c1c(NC(=O)NCc2c(-n3cccc3)sc3c2CCN(CC)C3)sc2c1CCN(C(C)=O)C2 [Compound 47] | < 0.1 µM
CC(C)(C)OC(=O)c1c(NC(=O)NCc2c(-c3ccoc3)sc3c2CCNC3)sc2c1CCOC2 [Compound 331] | < 0.1 µM

Structure (SMILES) | EC50
CCN1CCc2c(sc(-n3cccc3)c2CNC(=O)Nc2sc3c(c2C(=O)OC(C)(C)C)CCCC3)C1 [Compound 14] | < 0.1 µM
CC(C)(C)OC(=O)c1c(NC(=O)NCc2c(-n3cccc3)sc3c2CCNC3)sc2c1CCOC2 [Compound 319] | < 0.1 µM
CCOC(=O)c1c(NC(=O)NCc2c(C(F)(F)F)sc3c2CCNC3)sc2ccccc12 [Compound 348] | < 0.1 µM
CCOC(=O)c1c(NC(=O)NCc2c(Br)sc3c2CCNC3)sc2c1C(C)CCC2 (stereo not drawn) [Compound 164] | < 0.1 µM
CCOC(=O)c1c(NC(=O)NCc2ccsc2)sc2c1CCCC2 [Compound 3] | < 0.1 µM
CN(C)CCN1CCc2c(sc(C(F)(F)F)c2CNC(=O)Nc2sc3c(c2C(=O)OC(C)(C)C)CCCC3)C1 [Compound 355] | < 0.1 µM
COCCN1CCc2c(sc(-n3cccc3)c2CNC(=O)Nc2sc3c(c2C(=O)OC(C)(C)C)CCCC3)C1 [Compound 259] | < 0.1 µM
CC(C)(C)OC(=O)c1c(NC(=O)NCc2c(-c3ccccc3O)sc3c2CCNC3)sc2c1CCCC2 [Compound 249] | 0.1 to 1 µM
CC(C)(C)OC(=O)c1ccsc1NC(=O)NCc1c(C(F)(F)F)sc2c1CCNC2 [Compound 343] | 0.1 to 1 µM
CC(C)(C)OC(=O)c1c(NC(=O)NCc2c(-c3cccc(F)c3)sc3c2CCNC3)sc2c1CCCC2 [Compound 160] | < 0.1 µM
CCOC(=O)c1c(NC(=O)NCc2c(N3CCCC3)sc3c2CCNC3)sc2c1CCCC2 [Compound 125] | 0.1 to 1 µM
CCOC(=O)c1c(NC(=O)NCc2c(-n3cccc3)sc3c2CCNC3)sc2c1CCCCC2 [Compound 113] | 0.1 to 1 µM
CC(C)(C)OC(=O)c1c(NC(=O)NCc2c(-n3cccc3)sc3c2CCNC3)sc2c1CCCC2 [Compound 106] | < 0.1 µM
CCOC(=O)c1c(NC(=O)NCc2c(C(F)(F)F)sc3c2CCN(CCN(C)C)C3)sc2c1CCCC2 [Compound 316] | < 0.1 µM
CN(C)CCN1CCc2c(sc(-c3cccc(F)c3)c2CNC(=O)Nc2sc3c(c2C(=O)OC(C)(C)C)CCCC3)C1 [Compound 359] | < 0.1 µM
CCOC(=O)c1c(NC(=O)NCc2c(-n3cccc3)sc3c2CCN(CC)C3)sc2c1CCCCC2 [Compound 56] | < 0.1 µM
Cc1sc(NC(=O)NCc2c(-c3cccc(Cl)c3)sc3c2CCN(CCN(C)C)C3)c(C(=O)OC(C)(C)C)c1C [Compound 365] | 0.1 to 1 µM
CC(C)(C)OC(=O)c1c(NC(=O)NCc2c(Br)sc3c2CCNC3)sc2c1CCCC2 [Compound 116] | < 0.1 µM
CCN1CCc2c(sc(-n3cccc3)c2CNC(=O)Nc2sc3c(c2C(=O)NNC(C)C)CCCC3)C1 [Compound 209] | < 0.1 µM
CC(C)(C)OC(=O)c1c(NC(=O)NCc2c(-c3ccnc(F)c3)sc3c2CCNC3)sc2c1CCCC2 [Compound 310] | < 0.1 µM
C=CCN1CCc2c(sc(-n3cccc3)c2CNC(=O)Nc2sc3c(c2C(=O)OC(C)(C)C)CCCC3)C1 [Compound 324] | < 0.1 µM
CCOC(=O)c1c(NC(=O)NCc2c(N3CCCC3)sc3c2CCN(C(=O)OC(C)(C)C)C3)sc2c1CCCC2 [Compound 73] | < 0.1 µM
C=CCCOC(=O)c1c(NC(=O)NCc2c(-n3cccc3)sc3c2CCNC3)sc2c1CCCC2 [Compound 276] | < 0.1 µM
CC(C)OC(=O)c1c(NC(=O)NCc2c(C(F)(F)F)sc3c2CC[N+](C)(C)C3)sc2c1CCCC2 [Compound 170] | < 0.1 µM
CC(C)(C)OC(=O)c1c(NC(=O)NCc2c(-c3cccc(C#N)c3)sc3c2CCNC3)sc2c1CCCC2 [Compound 229] | 0.1 to 1 µM
CC(C)(C)OC(=O)c1c(NC(=O)NCc2c(-c3ccncc3)sc3c2CCNC3)sc2c1CCCC2 [Compound 145] | < 0.1 µM
Cc1nnc(-c2c(NC(=O)NCc3c(-n4cccc4)sc4c3CCN(C)C4)sc(C)c2C)o1 [Compound 74] | < 0.1 µM
